Patent EP0637449A1, “Use of L-carnitine or acyl L-carnitines and valproate for treating seizure disorders” (Sigma-Tau Industrie Farmaceutiche Riunite S.p.A., priority 1993, dated 1995)

System: epileptic patients
Assay: Clinical trial: seizure frequency in epileptic patients on valproate with added L-carnitine
Format: in vivo
Conditions: 45 patients treated only with valproate for at least six months, then valproate and L-carnitine for at least one year; compared with the pre-treatment period (valproate only). Pre-carnitine vs greater than 12 months p<0.001; start-6 months vs greater than 12 months p=0.0001; 6-12 months vs greater than 12 months p=0.0001
Procedure: Fortyfive patients, 20 females and 25 males, mean age 24.5±8.48 years, were included in the study.
Some patients had more than one seizure type.
All of the patients had been treated only with valproate for at least six months.
Subsequently, they were treated with both valproate and L-carnitine for at least one year.
At intervals L-carnitine activity was assessed on some parameters including seizure frequency, in comparison with the pre-treatment period (valproate only, no L-carnitine). The intervals selected for all the controls were: between the start to 6 months of L-carnitine therapy, […], and L-carnitine therapy greater than 12 months.
Parameter assessment was not carried out at prefixed dates but within the 0-6, 6-12 and greater than 12 month periods in order to evaluate the seizure frequency over a sufficiently extended time period.

For `C[N+](C)(C)C[C@H](O)CC(=O)[O-]` [L-carnitine], the seizure frequency was “decreased progressively and steadily”.
